Data from ChEMBL document CHEMBL4196010, “New hydrazides derivatives of isoniazid against Mycobacterium tuberculosis: Higher potency and lower hepatocytotoxicity” (Eur J Med Chem, 2018).
Converted amounts (≈) assume the structure as drawn.

Columns and labels:
[1] = test system: Mycobacterium tuberculosis; experiment: Antitubercular activity against Mycobacterium tuberculosis H37Rv ATCC 27294 after 5 days by microplate alamar blue assay; format: functional; conditions: H37Rv ATCC 27294, 120 h
Salmonella typhimurium [2] = experiment: Genotoxicity in Salmonella typhimurium TA98 assessed as increase in revertant colonies at 0.5 uM preincubated for 20 mins followed by addition of top agar and minimal agar and measured after 72 hrs in presence of S9 metabolic activation system by Ames test relative to control; format: toxicity, organism-based; conditions: salmonella enterica subsp. enterica serovar typhimurium
[3] = test system: Mycobacterium tuberculosis; experiment: Potency index, ratio of ethambutol MIC to compound MIC for antitubercular activity against Mycobacterium tuberculosis H37Rv ATCC 27294; format: functional
[4] = test system: Mycobacterium tuberculosis; experiment: Potency index, ratio of pyrazinamide MIC to compound MIC for antitubercular activity against Mycobacterium tuberculosis H37Rv ATCC 27294; format: functional
J774.A1 [5] = experiment: Cytotoxicity against mouse J774A.1 cells assessed as decrease in cell viability at 1 nM after 20 hrs by resazurin dye-based fluorimetric method; conditions: j774.a1, 20 h, 0.001 µM
J774.A1 [6] = experiment: Cytotoxicity against mouse J774A.1 cells assessed as decrease in cell viability at 10 nM after 20 hrs by resazurin dye-based fluorimetric method; conditions: j774.a1, 20 h, 0.01 µM
J774.A1 [7] = experiment: Cytotoxicity against mouse J774A.1 cells assessed as decrease in cell viability at 100 nM after 20 hrs by resazurin dye-based fluorimetric method; conditions: j774.a1, 20 h, 0.1 µM
J774.A1 [8] = experiment: Cytotoxicity against mouse J774A.1 cells assessed as decrease in cell viability at 1 uM after 20 hrs by resazurin dye-based fluorimetric method; conditions: j774.a1, 20 h
J774.A1 [9] = experiment: Cytotoxicity against mouse J774A.1 cells assessed as decrease in cell viability at 10 uM after 20 hrs by resazurin dye-based fluorimetric method; conditions: j774.a1, 20 h
J774.A1 [10] = experiment: Cytotoxicity against mouse J774A.1 cells assessed as decrease in cell viability at 100 uM after 20 hrs by resazurin dye-based fluorimetric method; conditions: j774.a1, 20 h
[11] = Cytotoxicity against human HepG2 cells after 3 hrs by WST-1 assay; format: cell-based; conditions: read-out: LC50
[12] = Cytotoxicity against human HepG2 cells after 24 hrs by WST-1 assay; format: cell-based; conditions: read-out: LC50
[13] = Selectivity index, ratio of LC50 for human HepG2 cells to MIC for Mycobacterium tuberculosis H37Rv ATCC 27294; format: toxicity; conditions: read-out: Selectivity Index
Salmonella typhimurium [14] = experiment: Genotoxicity in Salmonella typhimurium TA98 assessed as increase in revertant colonies at 0.5 uM preincubated for 20 mins followed by addition of top agar and minimal agar and measured after 72 hrs in absence of S9 metabolic activation system by Ames test relative to control; format: toxicity, organism-based; conditions: salmonella enterica subsp. enterica serovar typhimurium
Salmonella typhimurium [15] = experiment: Genotoxicity in Salmonella typhimurium TA98 assessed as increase in revertant colonies at 5 uM preincubated for 20 mins followed by addition of top agar and minimal agar and measured after 72 hrs in absence of S9 metabolic activation system by Ames test relative to control; format: toxicity, organism-based; conditions: salmonella enterica subsp. enterica serovar typhimurium
Salmonella typhimurium [16] = experiment: Genotoxicity in Salmonella typhimurium TA98 assessed as increase in revertant colonies at 50 uM preincubated for 20 mins followed by addition of top agar and minimal agar and measured after 72 hrs in absence of S9 metabolic activation system by Ames test relative to control; format: toxicity, organism-based; conditions: salmonella enterica subsp. enterica serovar typhimurium
Salmonella typhimurium [17] = experiment: Genotoxicity in Salmonella typhimurium TA98 assessed as increase in revertant colonies at 500 uM preincubated for 20 mins followed by addition of top agar and minimal agar and measured after 72 hrs in absence of S9 metabolic activation system by Ames test relative to control; format: toxicity, organism-based; conditions: salmonella enterica subsp. enterica serovar typhimurium
Salmonella typhimurium [18] = experiment: Genotoxicity in Salmonella typhimurium TA98 assessed as increase in revertant colonies at 5000 uM preincubated for 20 mins followed by addition of top agar and minimal agar and measured after 72 hrs in absence of S9 metabolic activation system by Ames test relative to control; format: toxicity, organism-based; conditions: salmonella enterica subsp. enterica serovar typhimurium
Salmonella typhimurium [19] = experiment: Genotoxicity in Salmonella typhimurium TA100 assessed as increase in revertant colonies at 0.5 uM preincubated for 20 mins followed by addition of top agar and minimal agar and measured after 72 hrs in absence of S9 metabolic activation system by Ames test relative to control; format: toxicity, organism-based; conditions: salmonella enterica subsp. enterica serovar typhimurium
Salmonella typhimurium [20] = experiment: Genotoxicity in Salmonella typhimurium TA100 assessed as increase in revertant colonies at 5 uM preincubated for 20 mins followed by addition of top agar and minimal agar and measured after 72 hrs in absence of S9 metabolic activation system by Ames test relative to control; format: toxicity, organism-based; conditions: salmonella enterica subsp. enterica serovar typhimurium
Salmonella typhimurium [21] = experiment: Genotoxicity in Salmonella typhimurium TA100 assessed as increase in revertant colonies at 50 uM preincubated for 20 mins followed by addition of top agar and minimal agar and measured after 72 hrs in absence of S9 metabolic activation system by Ames test relative to control; format: toxicity, organism-based; conditions: salmonella enterica subsp. enterica serovar typhimurium
Salmonella typhimurium [22] = experiment: Genotoxicity in Salmonella typhimurium TA100 assessed as increase in revertant colonies at 500 uM preincubated for 20 mins followed by addition of top agar and minimal agar and measured after 72 hrs in absence of S9 metabolic activation system by Ames test relative to control; format: toxicity, organism-based; conditions: salmonella enterica subsp. enterica serovar typhimurium
Salmonella typhimurium [23] = experiment: Genotoxicity in Salmonella typhimurium TA100 assessed as increase in revertant colonies at 5000 uM preincubated for 20 mins followed by addition of top agar and minimal agar and measured after 72 hrs in absence of S9 metabolic activation system by Ames test relative to control; format: toxicity, organism-based; conditions: salmonella enterica subsp. enterica serovar typhimurium
Salmonella typhimurium [24] = experiment: Genotoxicity in Salmonella typhimurium TA98 assessed as increase in revertant colonies at 5 uM preincubated for 20 mins followed by addition of top agar and minimal agar and measured after 72 hrs in presence of S9 metabolic activation system by Ames test relative to control; format: toxicity, organism-based; conditions: salmonella enterica subsp. enterica serovar typhimurium
Salmonella typhimurium [25] = experiment: Genotoxicity in Salmonella typhimurium TA98 assessed as increase in revertant colonies at 50 uM preincubated for 20 mins followed by addition of top agar and minimal agar and measured after 72 hrs in presence of S9 metabolic activation system by Ames test relative to control; format: toxicity, organism-based; conditions: salmonella enterica subsp. enterica serovar typhimurium
Salmonella typhimurium [26] = experiment: Genotoxicity in Salmonella typhimurium TA98 assessed as increase in revertant colonies at 500 uM preincubated for 20 mins followed by addition of top agar and minimal agar and measured after 72 hrs in presence of S9 metabolic activation system by Ames test relative to control; format: toxicity, organism-based; conditions: salmonella enterica subsp. enterica serovar typhimurium
Salmonella typhimurium [27] = experiment: Genotoxicity in Salmonella typhimurium TA98 assessed as increase in revertant colonies at 5000 uM preincubated for 20 mins followed by addition of top agar and minimal agar and measured after 72 hrs in presence of S9 metabolic activation system by Ames test relative to control; format: toxicity, organism-based; conditions: salmonella enterica subsp. enterica serovar typhimurium
Salmonella typhimurium [28] = experiment: Genotoxicity in Salmonella typhimurium TA100 assessed as increase in revertant colonies at 0.5 uM preincubated for 20 mins followed by addition of top agar and minimal agar and measured after 72 hrs in presence of S9 metabolic activation system by Ames test relative to control; format: toxicity, organism-based; conditions: salmonella enterica subsp. enterica serovar typhimurium
Salmonella typhimurium [29] = experiment: Genotoxicity in Salmonella typhimurium TA100 assessed as increase in revertant colonies at 5 uM preincubated for 20 mins followed by addition of top agar and minimal agar and measured after 72 hrs in presence of S9 metabolic activation system by Ames test relative to control; format: toxicity, organism-based; conditions: salmonella enterica subsp. enterica serovar typhimurium
Salmonella typhimurium [30] = experiment: Genotoxicity in Salmonella typhimurium TA100 assessed as increase in revertant colonies at 50 uM preincubated for 20 mins followed by addition of top agar and minimal agar and measured after 72 hrs in presence of S9 metabolic activation system by Ames test relative to control; format: toxicity, organism-based; conditions: salmonella enterica subsp. enterica serovar typhimurium
[31] = test system: Mycobacterium tuberculosis; experiment: Antitubercular activity against Mycobacterium tuberculosis; format: functional

CC(=O)Nc1ccc(C)cc1C(F)(F)C(=O)NNC(=O)c1ccncc1
MIC [1]: 6.91 µM (≈ 2.5 µg/mL)

CC(=O)Nc1ccccc1C(F)(F)C(=O)NN=C1CCCCC1
MIC [1]: > 310 µM

CC(=O)Nc1ccccc1C(F)(F)C(=O)NNc1ccccc1
MIC [1]: > 313 µM

CC(=O)Nc1ccc(C)cc1C(=O)C(=O)NNC(=O)c1ccncc1
fold change (FC) (Salmonella typhimurium [2]): 1
MIC [1]: 0.45 µM (≈ 0.153 µg/mL)
Ratio [3]: 30
Ratio [4]: 1800
Activity (J774.A1 [5]): 100%
Activity (J774.A1 [6]): 100%
Activity (J774.A1 [7]): 99.5%
Activity (J774.A1 [8]): 99.2%
Activity (J774.A1 [9]): 98.2%
Activity (J774.A1 [10]): 94%
CC50 at 3 h [11]: > 200 µM
CC50 at 24 h [12]: > 200 µM
selectivity ratio [13]: > 444
fold change (FC) (Salmonella typhimurium [14]): 1.2
fold change (FC) (Salmonella typhimurium [15]): 1.6
fold change (FC) (Salmonella typhimurium [16]): 1.8
fold change (FC) (Salmonella typhimurium [17]): 1.9
fold change (FC) (Salmonella typhimurium [18]): 3.4
fold change (FC) (Salmonella typhimurium [19]): 1.2
fold change (FC) (Salmonella typhimurium [20]): 1.2
fold change (FC) (Salmonella typhimurium [21]): 1.4
fold change (FC) (Salmonella typhimurium [22]): 1.4
fold change (FC) (Salmonella typhimurium [23]): 1.6
fold change (FC) (Salmonella typhimurium [24]): 1.7
fold change (FC) (Salmonella typhimurium [25]): 1.8
fold change (FC) (Salmonella typhimurium [26]): 3.4
fold change (FC) (Salmonella typhimurium [27]): 4
fold change (FC) (Salmonella typhimurium [28]): 1.1
fold change (FC) (Salmonella typhimurium [29]): 1.5
Activity (Salmonella typhimurium [30]): Toxic

CC(=O)Nc1ccc(C)cc1C(F)(F)C(=O)NNc1ccccn1
MIC [1]: > 299 µM

COc1ccc(NC(C)=O)c(C(F)(F)C(=O)NNC(=O)c2ccncc2)c1
MIC [1]: 33.1 µM (≈ 12.5 µg/mL)

CC(=O)Nc1ccc(Cl)cc1C(F)(F)C(=O)NNC(N)=S
MIC [31]: 297 µM (≈ 100 µg/mL)

CC[C@@H](CO)NCCN[C@@H](CC)CO [ETHAMBUTOL]
MIC [1]: 15.9 µM (≈ 3.25 µg/mL)

NNC(=O)c1ccncc1 [ISONIAZID]
fold change (FC) (Salmonella typhimurium [2]): 1.3
MIC [1]: 0.88 µM (≈ 0.121 µg/mL)
Activity (J774.A1 [5]): 99.5%
Activity (J774.A1 [6]): 98.2%
Activity (J774.A1 [7]): 97.3%
Activity (J774.A1 [8]): 98.7%
Activity (J774.A1 [9]): 98.5%
Activity (J774.A1 [10]): 90.3%
CC50 at 3 h [11]: > 200 µM
CC50 at 24 h [12]: 105 µM
selectivity ratio [13]: 119
fold change (FC) (Salmonella typhimurium [14]): 1.5
fold change (FC) (Salmonella typhimurium [15]): 1.6
fold change (FC) (Salmonella typhimurium [16]): 2
fold change (FC) (Salmonella typhimurium [17]): 3.7
fold change (FC) (Salmonella typhimurium [18]): 4
fold change (FC) (Salmonella typhimurium [19]): 1.1
fold change (FC) (Salmonella typhimurium [20]): 1.2
fold change (FC) (Salmonella typhimurium [21]): 1.3
fold change (FC) (Salmonella typhimurium [22]): 1.6
fold change (FC) (Salmonella typhimurium [23]): 1.9
fold change (FC) (Salmonella typhimurium [24]): 1.3
fold change (FC) (Salmonella typhimurium [25]): 1.5
fold change (FC) (Salmonella typhimurium [26]): 1.6
Activity (Salmonella typhimurium [27]): Toxic
fold change (FC) (Salmonella typhimurium [28]): 1.4
fold change (FC) (Salmonella typhimurium [29]): 1.4
Activity (Salmonella typhimurium [30]): Toxic

NC(=O)c1cnccn1 [PYRAZINAMIDE]
MIC [1]: 813 µM (≈ 100 µg/mL)

CO[C@H]1/C=C/O[C@@]2(C)Oc3c(C)c(O)c4c(O)c(c(/C=N/N5CCN(C)CC5)c(O)c4c3C2=O)NC(=O)/C(C)=C\C=C\[C@H](C)[C@H](O)[C@@H](C)[C@@H](O)[C@@H](C)[C@H](OC(C)=O)[C@@H]1C [RIFAMPIN]
MIC [1]: 1.22 µM (≈ 1 µg/mL)
